Assay results published in the supplement of paper PMC10307832.

Compound: CN(C/C=C/C1=CC=C(C=C1)Cl)CC2=CC=CC=C2N(CCO)S(=O)(=O)C3=CC=C(C=C3)OC [KN-93] + NC(=O)Nc1cc(-c2cccc(F)c2)sc1C(=O)N[C@H]1CCCNC1 [AZD7762] (partner 0.2 µM)
Test: relative viability (nuclei count vs DMSO), 5 days (fraction); higher = more cells survive
In short: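 Lung cancer cell lines in 1536-well plates were dosed by pin tool the day after seeding, either with one drug alone or with a fixed anchor-drug dose plus five library-drug doses (not always all listed) in √10 steps. After 5 days, cells were fixed and their nuclei stained in one step (final 0.05% Triton X-100, 1% formaldehyde, 1 ug/ml Hoechst), then counted on 4× images. Relative viability is the nuclei count in treated wells divided by that in vehicle wells. Values are medians of duplicate plates.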

201T
relative viability (first compound 0.08 µM): 0.616 | relative viability (first compound 0.253 µM): 0.707 | relative viability (first compound 2.53 µM): 0.658 | relative viability (first compound 8 µM): 0.619

A-427
relative viability (first compound 0.08 µM): 0.657 | relative viability (first compound 0.253 µM): 0.771 | relative viability (first compound 2.53 µM): 1.03 | relative viability (first compound 8 µM): 0.548

ABC-1
relative viability (first compound 0.08 µM): 0.924 | relative viability (first compound 0.253 µM): 1.05 | relative viability (first compound 2.53 µM): 0.869 | relative viability (first compound 8 µM): 0.38

BEN
relative viability (first compound 0.08 µM): 0.771 | relative viability (first compound 0.253 µM): 0.661 | relative viability (first compound 2.53 µM): 0.678 | relative viability (first compound 8 µM): 0.442

CAL-12T
relative viability (first compound 0.08 µM): 0.56 | relative viability (first compound 0.253 µM): 0.628 | relative viability (first compound 2.53 µM): 0.667 | relative viability (first compound 8 µM): 0.399

ChaGo-K-1
relative viability (first compound 0.08 µM): 0.797 | relative viability (first compound 0.253 µM): 0.928 | relative viability (first compound 2.53 µM): 0.934 | relative viability (first compound 8 µM): 0.713

EKVX
relative viability (first compound 0.08 µM): 0.623 | relative viability (first compound 0.253 µM): 0.515 | relative viability (first compound 2.53 µM): 0.73 | relative viability (first compound 8 µM): 0.354

EMC-BAC-2
relative viability (first compound 0.08 µM): 1.22 | relative viability (first compound 0.253 µM): 1.28 | relative viability (first compound 2.53 µM): 1.2 | relative viability (first compound 8 µM): 0.872

EPLC-272H
relative viability (first compound 0.08 µM): 0.195 | relative viability (first compound 0.253 µM): 0.2 | relative viability (first compound 2.53 µM): 0.527 | relative viability (first compound 8 µM): 0.347

H3255
relative viability (first compound 0.08 µM): 0.878 | relative viability (first compound 0.253 µM): 0.894 | relative viability (first compound 2.53 µM): 0.989 | relative viability (first compound 8 µM): 0.558

HARA
relative viability (first compound 0.08 µM): 0.303 | relative viability (first compound 0.253 µM): 0.392 | relative viability (first compound 2.53 µM): 0.193 | relative viability (first compound 8 µM): 0.271

HCC-15
relative viability (first compound 0.08 µM): 1.18 | relative viability (first compound 0.253 µM): 1.24 | relative viability (first compound 2.53 µM): 1.38 | relative viability (first compound 8 µM): 1

HCC-44
relative viability (first compound 0.08 µM): 1.02 | relative viability (first compound 0.253 µM): 0.904 | relative viability (first compound 2.53 µM): 1.04 | relative viability (first compound 8 µM): 0.944

HCC-78
relative viability (first compound 0.08 µM): 0.623 | relative viability (first compound 0.253 µM): 0.506 | relative viability (first compound 2.53 µM): 0.622 | relative viability (first compound 8 µM): 0.653

HCC-366
relative viability (first compound 0.08 µM): 0.269 | relative viability (first compound 0.253 µM): 0.221 | relative viability (first compound 2.53 µM): 0.286 | relative viability (first compound 8 µM): 0.0943

HCC-827
relative viability (first compound 0.08 µM): 0.195 | relative viability (first compound 0.253 µM): 0.159 | relative viability (first compound 2.53 µM): 0.191 | relative viability (first compound 8 µM): 0.186

HOP-62
relative viability (first compound 0.08 µM): 0.476 | relative viability (first compound 0.253 µM): 0.499 | relative viability (first compound 2.53 µM): 0.797 | relative viability (first compound 8 µM): 0.458

LC-2-ad
relative viability (first compound 0.08 µM): 0.775 | relative viability (first compound 0.253 µM): 0.958 | relative viability (first compound 2.53 µM): 0.953 | relative viability (first compound 8 µM): 0.785

LCLC-97TM1
relative viability (first compound 0.08 µM): 0.289 | relative viability (first compound 0.253 µM): 0.279 | relative viability (first compound 2.53 µM): 0.198 | relative viability (first compound 8 µM): 0.224

LCLC-103H
relative viability (first compound 0.08 µM): 0.732 | relative viability (first compound 0.253 µM): 0.808 | relative viability (first compound 2.53 µM): 0.822 | relative viability (first compound 8 µM): 0.626

LK-2
relative viability (first compound 0.08 µM): 0.419 | relative viability (first compound 0.253 µM): 0.366 | relative viability (first compound 2.53 µM): 0.428 | relative viability (first compound 8 µM): 0.3

LOU-NH91
relative viability (first compound 0.08 µM): 0.731 | relative viability (first compound 0.253 µM): 0.659 | relative viability (first compound 2.53 µM): 0.802 | relative viability (first compound 8 µM): 0.623

LU99A
relative viability (first compound 0.08 µM): 0.31 | relative viability (first compound 0.253 µM): 0.323 | relative viability (first compound 2.53 µM): 0.38 | relative viability (first compound 8 µM): 0.336

LXF-289
relative viability (first compound 0.08 µM): 0.813 | relative viability (first compound 0.253 µM): 1.15 | relative viability (first compound 2.53 µM): 1.18 | relative viability (first compound 8 µM): 0.978

NCI-H23
relative viability (first compound 0.08 µM): 0.286 | relative viability (first compound 0.253 µM): 0.214 | relative viability (first compound 2.53 µM): 0.235 | relative viability (first compound 8 µM): 0.106

NCI-H322M
relative viability (first compound 0.08 µM): 0.549 | relative viability (first compound 0.253 µM): 0.53 | relative viability (first compound 2.53 µM): 0.555 | relative viability (first compound 8 µM): 0.51

NCI-H358
relative viability (first compound 0.08 µM): 0.474 | relative viability (first compound 0.253 µM): 0.473 | relative viability (first compound 2.53 µM): 0.465 | relative viability (first compound 8 µM): 0.424

NCI-H441
relative viability (first compound 0.253 µM): 1.36 | relative viability (first compound 2.53 µM): 1.19 | relative viability (first compound 8 µM): 1.06

NCI-H460
relative viability (first compound 0.08 µM): 0.563 | relative viability (first compound 0.253 µM): 0.556 | relative viability (first compound 2.53 µM): 0.731 | relative viability (first compound 8 µM): 0.328

NCI-H522
relative viability (first compound 0.08 µM): 0.831 | relative viability (first compound 0.253 µM): 0.811 | relative viability (first compound 2.53 µM): 0.876 | relative viability (first compound 8 µM): 0.77

NCI-H596
relative viability (first compound 0.08 µM): 1 | relative viability (first compound 0.253 µM): 1.08 | relative viability (first compound 2.53 µM): 1.11 | relative viability (first compound 8 µM): 0.845

NCI-H647
relative viability (first compound 0.08 µM): 0.398 | relative viability (first compound 0.253 µM): 0.557 | relative viability (first compound 2.53 µM): 0.447 | relative viability (first compound 8 µM): 0.381

NCI-H650
relative viability (first compound 0.08 µM): 0.984 | relative viability (first compound 0.253 µM): 0.996 | relative viability (first compound 2.53 µM): 1.23 | relative viability (first compound 8 µM): 0.978

NCI-H727
relative viability (first compound 0.08 µM): 0.643 | relative viability (first compound 2.53 µM): 0.627 | relative viability (first compound 8 µM): 0.471

NCI-H838
relative viability (first compound 0.08 µM): 0.842 | relative viability (first compound 0.253 µM): 0.884 | relative viability (first compound 2.53 µM): 0.992 | relative viability (first compound 8 µM): 0.831

NCI-H1355
relative viability (first compound 0.08 µM): 0.822 | relative viability (first compound 0.253 µM): 0.694 | relative viability (first compound 2.53 µM): 0.826 | relative viability (first compound 8 µM): 0.703

NCI-H1395
relative viability (first compound 0.08 µM): 0.421 | relative viability (first compound 0.253 µM): 0.403 | relative viability (first compound 2.53 µM): 0.391 | relative viability (first compound 8 µM): 0.345

NCI-H1437
relative viability (first compound 0.08 µM): 1.16 | relative viability (first compound 0.253 µM): 1.29 | relative viability (first compound 2.53 µM): 1.24 | relative viability (first compound 8 µM): 0.654

NCI-H1651
relative viability (first compound 0.08 µM): 0.394 | relative viability (first compound 0.253 µM): 0.505 | relative viability (first compound 2.53 µM): 0.526 | relative viability (first compound 8 µM): 0.353

NCI-H1666
relative viability (first compound 0.08 µM): 0.863 | relative viability (first compound 0.253 µM): 0.874 | relative viability (first compound 2.53 µM): 0.802 | relative viability (first compound 8 µM): 0.788

NCI-H1703
relative viability (first compound 0.08 µM): 0.117 | relative viability (first compound 0.253 µM): 0.115 | relative viability (first compound 2.53 µM): 0.105 | relative viability (first compound 8 µM): 0.153

NCI-H1734
relative viability (first compound 0.08 µM): 0.465 | relative viability (first compound 0.253 µM): 0.627 | relative viability (first compound 2.53 µM): 0.597 | relative viability (first compound 8 µM): 0.441

NCI-H1755
relative viability (first compound 0.08 µM): 0.392 | relative viability (first compound 0.253 µM): 0.411 | relative viability (first compound 2.53 µM): 0.444 | relative viability (first compound 8 µM): 0.407

NCI-H1792
relative viability (first compound 0.08 µM): 0.583 | relative viability (first compound 0.253 µM): 0.504 | relative viability (first compound 2.53 µM): 0.683 | relative viability (first compound 8 µM): 0.353

NCI-H1793
relative viability (first compound 0.08 µM): 0.358 | relative viability (first compound 0.253 µM): 0.458 | relative viability (first compound 2.53 µM): 0.454 | relative viability (first compound 8 µM): 0.159

NCI-H1915
relative viability (first compound 0.08 µM): 0.67 | relative viability (first compound 0.253 µM): 0.735 | relative viability (first compound 2.53 µM): 0.632 | relative viability (first compound 8 µM): 0.671

NCI-H1944
relative viability (first compound 0.08 µM): 0.527 | relative viability (first compound 0.253 µM): 0.433 | relative viability (first compound 2.53 µM): 0.585 | relative viability (first compound 8 µM): 0.579

NCI-H1975
relative viability (first compound 0.08 µM): 0.664 | relative viability (first compound 0.253 µM): 0.599 | relative viability (first compound 2.53 µM): 0.72 | relative viability (first compound 8 µM): 0.558

NCI-H1993
relative viability (first compound 0.08 µM): 0.608 | relative viability (first compound 0.253 µM): 0.654 | relative viability (first compound 2.53 µM): 0.708 | relative viability (first compound 8 µM): 0.586

NCI-H2085
relative viability (first compound 0.08 µM): 0.883 | relative viability (first compound 0.253 µM): 1.12 | relative viability (first compound 2.53 µM): 1.06 | relative viability (first compound 8 µM): 0.592

NCI-H2087
relative viability (first compound 0.08 µM): 0.821 | relative viability (first compound 0.253 µM): 1.61 | relative viability (first compound 2.53 µM): 1.16 | relative viability (first compound 8 µM): 1.04

NCI-H2126
relative viability (first compound 0.08 µM): 0.939 | relative viability (first compound 0.253 µM): 1.01 | relative viability (first compound 2.53 µM): 1.03 | relative viability (first compound 8 µM): 0.974

NCI-H2170
relative viability (first compound 0.08 µM): 0.623 | relative viability (first compound 0.253 µM): 0.971 | relative viability (first compound 2.53 µM): 0.845 | relative viability (first compound 8 µM): 0.734

NCI-H2347
relative viability (first compound 0.08 µM): 0.621 | relative viability (first compound 0.253 µM): 0.861 | relative viability (first compound 2.53 µM): 0.885 | relative viability (first compound 8 µM): 0.498

NCI-H2405
relative viability (first compound 0.08 µM): 0.735 | relative viability (first compound 0.253 µM): 0.859 | relative viability (first compound 2.53 µM): 0.806 | relative viability (first compound 8 µM): 0.555

NCI-H3122
relative viability (first compound 0.08 µM): 0.892 | relative viability (first compound 0.253 µM): 1.11 | relative viability (first compound 2.53 µM): 1.12 | relative viability (first compound 8 µM): 0.934

PC-3 [JPC-3]
relative viability (first compound 0.08 µM): 0.813 | relative viability (first compound 0.253 µM): 0.757 | relative viability (first compound 2.53 µM): 0.781 | relative viability (first compound 8 µM): 0.714

PC-14
relative viability (first compound 0.08 µM): 0.331 | relative viability (first compound 0.253 µM): 0.316 | relative viability (first compound 2.53 µM): 0.527 | relative viability (first compound 8 µM): 0.343

RERF-LC-KJ
relative viability (first compound 0.08 µM): 0.707 | relative viability (first compound 0.253 µM): 0.898 | relative viability (first compound 2.53 µM): 1 | relative viability (first compound 8 µM): 0.753

SW 900
relative viability (first compound 0.08 µM): 0.669 | relative viability (first compound 0.253 µM): 0.628 | relative viability (first compound 2.53 µM): 0.684 | relative viability (first compound 8 µM): 0.522
